Values joined by “and” are separate entries in the source; they are usually repeats but may differ in a detail not shown here. Equal values may be shown once.
Assays:
102 common targets = assay: Safety pharmacology panel; conditions: all except COX1
HEC108 = assay: CFA 10-14 day clonogenic assay; assay type: cell-based; conditions: Homo sapiens
TGBC11TKB = assay: CFA 10-14 day clonogenic assay; assay type: cell-based; conditions: Homo sapiens
[1] = Mouse body weight, SW48 xenograft study with HRO761; assay type: in vivo
Description: All animal studies were conducted in accordance with ethics and procedures covered by permit BS-2275 and BS-1975 issued by the Kantonales Veterinäramt Basel-Stadt and in strict adherence to guidelines of the Eidgenössisches Tierschutzgesetz and the Eidgenössische Tierschutzverordnung, Switzerland. All animal studies were approved by the internal ethics committee. All animals had access to food and water ad libitum and were identified with transponders. They were housed in a specific-pathogen-free facility in IVC racks under a 12 h–12 h light–dark cycle. To establish cell-line-derived xenograft models, 6–7-week-old female athymic nude (Crl:NU(NCr)-Foxn1^nu) or SCID-BEIGE (CB17.Cg-PrkdcscidLystbg-J/Crl) mice from Charles River were engrafted subcutaneously with 5 million tumour cells in HBSS (H6648, Sigma-Aldrich). For SNU-407, Lovo, IM95, RL95.2, Ishikawa and IGROV-1, the cells were concentrated in 50% Matrigel (354234, Corning). Patient-derived xenografts were induced and expanded by transplantation as previously described. […] For the efficacy experiment, mice were randomized into groups (n = 5–6) for a mean tumour size of 100–150 mm^3. […] Blood samples were collected on day 7 and 91. […] Tumour responses are reported with the measures of tumour volumes from the treatment start. […] Animals were randomized (n = 3) and tumour samples were collected at 0, 1, 4, 8 and 24 h on the first day and then collected 4 h after the last treatment on day 3, 8, 10, 14 (including a 24 h timepoint), 17 and 21. Tumours were excised, weighed, either frozen in liquid nitrogen and cryogenic dry pulverized with the CryoPrep system (model CP-02, Covaris) or processed to FFPE after fixation. […] On day 12, blood samples were collected for PK analysis. On the last day (3 h after the last treatment), tumours were excised, weighed, frozen in liquid nitrogen and cryogenic dry pulverized for PD analysis.

[2] = HRO761 20mg/kg, day 0 post 1st dose
[3] = HRO761 40mg/kg, day 0 post 1st dose
[4] = HRO761 60mg/kg, day 0 post 1st dose

## CCc1c(N2CCN(C(=O)c3ncnc(C)c3O)CC2)c(=O)n2nc(C3=CCOCC3)nc2n1CC(=O)Nc1ccc(C(F)(F)F)cc1Cl [HRO761]
102 common targets
  Safety pharmacology panel (102 common targets): > 30 μM
HEC108
  GI50: 104 nM
TGBC11TKB
  GI50: 44 nM
[1]; [2]
  Delta BW change, individual mouse: 0%
  Mean DBW: 0.00%
[1]; HRO761 20mg/kg, day 3 post 1st dose
  Mean DBW: -0.35%
[1]; HRO761 20mg/kg, day 3 post 1st dose, 20 mg/kg
  Delta BW change, individual mouse: 1.24% and 0% (2×) and -0.78% and -2.23%
[1]; HRO761 20mg/kg, day 7 post 1st dose
  Mean DBW: 0.52%
[1]; HRO761 20mg/kg, day 7 post 1st dose, 20 mg/kg
  Delta BW change, individual mouse: 2.07% and 1.26% and 1.16% and -1.17% and -0.74%
[1]; HRO761 20mg/kg, day 10 post 1st dose
  Mean DBW: 1.67%
[1]; HRO761 20mg/kg, day 10 post 1st dose, 20 mg/kg
  Delta BW change, individual mouse: 3.32% and 6.28% and -1.54% and -1.56% and 1.86%
[1]; HRO761 20mg/kg, day 14 post 1st dose
  Mean DBW: 1.33%
[1]; HRO761 20mg/kg, day 14 post 1st dose, 20 mg/kg
  Delta BW change, individual mouse: 1.66% and 5.86% and -2.32% and -0.78% and 2.23%
[1]; HRO761 20mg/kg, day 17 post 1st dose
  Mean DBW: 2.56%
[1]; HRO761 20mg/kg, day 21 post 1st dose
  Mean DBW: 4.75%
[1]; HRO761 20mg/kg, day 24 post 1st dose
  Mean DBW: 2.97%
[1]; HRO761 20mg/kg, day 28 post 1st dose
  Mean DBW: 3.11%
[1]; HRO761 20mg/kg, day 31 post 1st dose
  Mean DBW: 2.34%
[1]; HRO761 20mg/kg, day 35 post 1st dose
  Mean DBW: 3.43%
[1]; HRO761 20mg/kg, day 38 post 1st dose
  Mean DBW: 2.26%
[1]; HRO761 20mg/kg, day 42 post 1st dose
  Mean DBW: 3.84%
[1]; HRO761 20mg/kg, day 45 post 1st dose
  Mean DBW: 3.81%
[1]; [3]
  Delta BW change, individual mouse: 0%
  Mean DBW: 0.00%
[1]; HRO761 40mg/kg, day 3 post 1st dose
  Mean DBW: -0.77%
[1]; HRO761 40mg/kg, day 3 post 1st dose, 40 mg/kg
  Delta BW change, individual mouse: -0.91% and 0.87% and -5.78% and -3.41% and 5.36%
[1]; HRO761 40mg/kg, day 7 post 1st dose
  Mean DBW: 2.11%
[1]; HRO761 40mg/kg, day 7 post 1st dose, 40 mg/kg
  Delta BW change, individual mouse: 3.18% and 5.63% and -3.25% and -1.14% and 6.13%
[1]; HRO761 40mg/kg, day 10 post 1st dose
  Mean DBW: 1.41%
[1]; HRO761 40mg/kg, day 10 post 1st dose, 40 mg/kg
  Delta BW change, individual mouse: 4.09% and 1.73% and -2.17% and 2.27% and 1.15%
[1]; HRO761 40mg/kg, day 14 post 1st dose
  Mean DBW: 4.08%
[1]; HRO761 40mg/kg, day 14 post 1st dose, 40 mg/kg
  Delta BW change, individual mouse: 5% and 7.36% and -0.36% and 4.17% and 4.21%
[1]; HRO761 40mg/kg, day 17 post 1st dose
  Mean DBW: 3.43%
[1]; HRO761 40mg/kg, day 21 post 1st dose
  Mean DBW: 5.66%
[1]; HRO761 40mg/kg, day 24 post 1st dose
  Mean DBW: 6.90%
[1]; HRO761 40mg/kg, day 28 post 1st dose
  Mean DBW: 6.44%
[1]; HRO761 40mg/kg, day 31 post 1st dose
  Mean DBW: 5.60%
[1]; HRO761 40mg/kg, day 35 post 1st dose
  Mean DBW: 6.99%
[1]; HRO761 40mg/kg, day 38 post 1st dose
  Mean DBW: 6.65%
[1]; HRO761 40mg/kg, day 42 post 1st dose
  Mean DBW: 6.89%
[1]; HRO761 40mg/kg, day 45 post 1st dose
  Mean DBW: 7.16%
[1]; HRO761 40mg/kg, day 49 post 1st dose
  Mean DBW: 8.78%
[1]; HRO761 40mg/kg, day 52 post 1st dose
  Mean DBW: 8.33%
[1]; HRO761 40mg/kg, day 56 post 1st dose
  Mean DBW: 7.63%
[1]; HRO761 40mg/kg, day 59 post 1st dose
  Mean DBW: 8.29%
[1]; HRO761 40mg/kg, day 63 post 1st dose
  Mean DBW: 9.98%
[1]; HRO761 40mg/kg, day 66 post 1st dose
  Mean DBW: 10.38%
[1]; HRO761 40mg/kg, day 70 post 1st dose
  Mean DBW: 8.92%
[1]; HRO761 40mg/kg, day 73 post 1st dose
  Mean DBW: 8.55%
[1]; HRO761 40mg/kg, day 76 post 1st dose
  Mean DBW: 11.97%
[1]; HRO761 40mg/kg, day 79 post 1st dose
  Mean DBW: 7.46%
[1]; HRO761 40mg/kg, day 83 post 1st dose
  Mean DBW: 7.38%
[1]; HRO761 40mg/kg, day 86 post 1st dose
  Mean DBW: 9.81%
[1]; [4]
  Delta BW change, individual mouse: 0%
  Mean DBW: 0.00%
[1]; HRO761 60mg/kg, day 3 post 1st dose
  Mean DBW: -1.52%
[1]; HRO761 60mg/kg, day 3 post 1st dose, 60 mg/kg
  Delta BW change, individual mouse: -2.98% and 1.63% and -3.35% and -4.6% and 1.71%
[1]; HRO761 60mg/kg, day 7 post 1st dose
  Mean DBW: -1.16%
[1]; HRO761 60mg/kg, day 7 post 1st dose, 60 mg/kg
  Delta BW change, individual mouse: -1.7% and -3.27% and 1.26% and -3.35% and 1.28%
[1]; HRO761 60mg/kg, day 10 post 1st dose
  Mean DBW: -1.23%
[1]; HRO761 60mg/kg, day 10 post 1st dose, 60 mg/kg
  Delta BW change, individual mouse: -0.43% and -6.94% and 7.11% and -5.02% and -0.85%
[1]; HRO761 60mg/kg, day 14 post 1st dose
  Mean DBW: 0.014%
[1]; HRO761 60mg/kg, day 14 post 1st dose, 60 mg/kg
  Delta BW change, individual mouse: -0.43% and -2.86% and 6.69% and -4.18% and 0.85%
[1]; HRO761 60mg/kg, day 17 post 1st dose
  Mean DBW: -0.23%

From paper PMC11078746 (Nature, 2024)
